Laboratory results: patent publication US6914045B2, “Glycopeptide antibiotics” (Wyeth Holdings Corporation, priority 2001, dated 2005)
≈ marks a conversion by molar mass, not a printed value.

Key:
Test in all cases: in vitro antibacterial evaluation, MIC by broth dilution
Type in all cases: cell-based
[1] = test system: Staphylococcus sp.; settings: broth dilution, 18 hours at 35° C.; for MIC Staphylococcus aureus (GC 1131): strain GC 1131
Outline: (§1)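 Step 1: dilute antibiotic across 64-0.06 μg/mL in Muller-Hinton II […]. Step 2: inoculate at 5×10^5 CFU/mL.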

[2] = test system: Escherichia coli
Outline: as §1

[3] = test system: Streptococcus sp.; settings: broth dilution, 18 hours at 35° C.
Outline: as §1

[4] = test system: Enterococcus sp.; settings: broth dilution, 18 hours at 35° C.
Outline: as §1

With COc1cc(C2OCC3OC(OC4C(CO)OC(Oc5ccc(CC6NC(=O)C(C(C)c7ccccc7)NC(=O)CNC(=O)C(CO)NC(=O)C(C(O)C7CNC(=N)N7C7OC(CO)C(O)C(O)C7O)NC(=O)C(C(O)C7CNC(=N)N7)NC6=O)cc5)C(O)C4O)C(O)C(O)C3O2)ccc1[N+](=O)[O-] (centres unmarked) [Example 153] the “MIC Staphylococcus aureus (GC 1131)” value ([1]; inoculum 5×10^5 CFU/mL) was 2 µg/mL (≈ 1.37 µM), the “MIC Staphylococcus aureus (ATCC 29213)” value ([1]; strain ATCC 29213) was 2 µg/mL (≈ 1.37 µM) and the “MIC Staphylococcus aureus (GC 1131)” value [1] was 2 µg/mL (≈ 1.37 µM). For the same molecule, the “MIC Staphylococcus aureus (GC 3051)” value ([1]; strain GC 3051) was 2 µg/mL (≈ 1.37 µM), the “MIC Staphylococcus aureus (GC 3053)” value ([1]; strain GC 3053) was 4 µg/mL (≈ 2.74 µM) and the “MIC Staphylococcus aureus (GC 4541)” value ([1]; strain GC 4541) was 2 µg/mL (≈ 1.37 µM). For the same molecule, the “MIC Staphylococcus aureus (GC 4542)” value ([1]; strain GC 4542) was 2 µg/mL (≈ 1.37 µM), the “MIC Staphylococcus aureus-SMITH (GC 4543)” value ([1]; strain GC 4543) was 1 µg/mL (≈ 0.686 µM) and the “MIC Staphylococcus aureus (GC 4544)” value ([1]; strain GC 4544) was 2 µg/mL (≈ 1.37 µM). The “MIC Staphylococcus aureus (GC 4545)” value ([1]; strain GC 4545) was 2 µg/mL (≈ 1.37 µM), the “MIC Staphylococcus haemolyticus (GC 4546)” value ([1]; strain GC 4546) was 1 µg/mL (≈ 0.686 µM) and the “MIC Coagulase Negative Staphylococcus (GC 4547)” value ([1]; strain GC 4547) was 1 µg/mL (≈ 0.686 µM). The “MIC Coagulase Negative Staphylococcus (GC 4548)” value ([1]; strain GC 4548) was 0.5 µg/mL (≈ 0.343 µM), the “MIC Coagulase Negative Staphylococcus (GC 4549)” value ([1]; strain GC 4549) was 0.5 µg/mL (≈ 0.343 µM) and the “MIC Coagulase Negative Staphylococcus (GC 4551)” value ([1]; strain GC 4551) was 2 µg/mL (≈ 1.37 µM). For the same molecule, the “MIC Coagulase Negative Staphylococcus (GC 6257)” value ([1]; strain GC 6257) was 0.5 µg/mL (≈ 0.343 µM), the “MIC Staphylococcus aureus-SMITH (GC 4543)” value ([1]; strain SMITH GC 4543) was 1 µg/mL (≈ 0.686 µM) and the “MIC Escherichia coli (ATCC 25922)” value ([2]; strain ATCC 25922, 18 hours at 35° C.) was 64 µg/mL (≈ 43.9 µM). For the same molecule, the “MIC Escherichia coli (GC 4559)” value ([2]; strain GC 4559, 18 hours at 35° C.) was 64 µg/mL (≈ 43.9 µM), the “MIC Streptococcus agalactiae (GC 4564)” value ([3]; Streptococcus agalactiae (GC 4564)) was 0.5 µg/mL (≈ 0.343 µM) and the “MIC Streptococcus pneumoniae (ATCC 6301)” value ([3]; Streptococcus pneumoniae (ATCC 6301)) was less than 0.06 µg/mL. The “MIC Streptococcus pneumoniae (GC 1894)” value ([3]; Streptococcus pneumoniae (GC 1894)) was less than 0.06 µg/mL, the “MIC Streptococcus pneumoniae (GC 4565)” value ([3]; Streptococcus pneumoniae (GC 4565)) was less than 0.06 µg/mL and the “MIC Streptococcus pyogenes (GC 4563)” value ([3]; Streptococcus pyogenes (GC 4563)) was 0.25 µg/mL (≈ 0.171 µM). The “MIC Streptococcus pneumoniae (ATCC 6301)” value ([3]; strain ATCC 6301) was less than 0.06 µg/mL, the “MIC Streptococcus pneumoniae (GC 1894)” value ([3]; strain GC 1894) was less than 0.06 µg/mL and the “MIC Streptococcus pyogenes (GC 4563)” value ([3]; strain GC 4563) was 0.25 µg/mL (≈ 0.171 µM). The “MIC Streptococcus agalactiae (GC 4564)” value ([3]; strain GC 4564) was 0.5 µg/mL (≈ 0.343 µM), the “MIC Streptococcus pneumoniae (GC 4565)” value ([3]; strain GC 4565) was less than 0.06 µg/mL and the “MIC Enterococcus avium (GC 4558)” value ([4]; Enterococcus avium (GC 4558)) was 8 µg/mL (≈ 5.49 µM). For the same molecule, the “MIC Enterococcus faecalis (ATCC 29212)” value ([4]; Enterococcus faecalis (ATCC 29212)) was 8 µg/mL (≈ 5.49 µM), the “MIC Enterococcus faecalis (GC 2242)” value ([4]; Enterococcus faecalis (GC 2242)) was 4 µg/mL (≈ 2.74 µM) and the “MIC Enterococcus faecalis (GC 2691)” value ([4]; Enterococcus faecalis (GC 2691)) was 8 µg/mL (≈ 5.49 µM). For the same molecule, the “MIC Enterococcus faecalis (GC 3059)” value ([4]; Enterococcus faecalis (GC 3059)) was 8 µg/mL (≈ 5.49 µM), the “MIC Enterococcus faecalis (GC 4552)” value ([4]; Enterococcus faecalis (GC 4552)) was 8 µg/mL (≈ 5.49 µM) and the “MIC Enterococcus faecalis (GC 4553)” value ([4]; Enterococcus faecalis (GC 4553)) was 8 µg/mL (≈ 5.49 µM). For the same molecule, the “MIC Enterococcus faecalis (GC 4554)” value ([4]; Enterococcus faecalis (GC 4554)) was 8 µg/mL (≈ 5.49 µM), the “MIC Enterococcus faecalis (GC 6189)” value ([4]; Enterococcus faecalis (GC 6189)) was 4 µg/mL (≈ 2.74 µM) and the “MIC Enterococcus faecium (GC 2243)” value ([4]; Enterococcus faecium (GC 2243)) was 4 µg/mL (≈ 2.74 µM). For the same molecule, the “MIC Enterococcus faecium (GC 4556)” value ([4]; Enterococcus faecium (GC 4556)) was 4 µg/mL (≈ 2.74 µM), the “MIC Enterococcus faecium (GC 4557)” value ([4]; Enterococcus faecium (GC 4557)) was 2 µg/mL (≈ 1.37 µM) and the “MIC Enterococcus faecalis (ATCC 29212)” value ([4]; strain ATCC 29212) was 8 µg/mL (≈ 5.49 µM). The “MIC Enterococcus faecalis (GC 2242)” value ([4]; strain GC 2242) was 4 µg/mL (≈ 2.74 µM), the “MIC Enterococcus faecium (GC 2243)” value ([4]; strain GC 2243) was 4 µg/mL (≈ 2.74 µM) and the “MIC Enterococcus faecalis (GC 2691)” value ([4]; strain GC 2691) was 8 µg/mL (≈ 5.49 µM). For the same molecule, the “MIC Enterococcus faecalis (GC 3059)” value ([4]; strain GC 3059) was 8 µg/mL (≈ 5.49 µM), the “MIC Enterococcus faecalis (GC 4552)” value ([4]; strain GC 4552) was 8 µg/mL (≈ 5.49 µM) and the “MIC Enterococcus faecalis (GC 4553)” value ([4]; strain GC 4553) was 8 µg/mL (≈ 5.49 µM). For the same molecule, the “MIC Enterococcus faecalis (GC 4554)” value ([4]; strain GC 4554) was 8 µg/mL (≈ 5.49 µM), the “MIC Enterococcus faecium (GC 4556)” value ([4]; strain GC 4556) was 4 µg/mL (≈ 2.74 µM) and the “MIC Enterococcus faecium (GC 4557)” value ([4]; strain GC 4557) was 2 µg/mL (≈ 1.37 µM). The “MIC Enterococcus avium (GC 4558)” value ([4]; strain GC 4558) was 8 µg/mL (≈ 5.49 µM) and the “MIC Enterococcus faecalis (GC 6189)” value ([4]; strain GC 6189) was 4 µg/mL (≈ 2.74 µM).
